The values that follow come from patent publication US20240101531A1, “PYRIDINAMINE DERIVATIVES AND THEIR USE AS POTASSIUM CHANNEL MODULATORS” (Xenon Pharmaceuticals Inc., priority 2022, published 2024).

Where a name gives a salt, the structure may show the parent alone. A value given as a limit tells only on which side of the number the result lay.

Broadly, the EC50 is the concentration giving half of the maximal effect.

For the assay, the target named is human KV7.2/KV7.3 (Homo sapiens (Human), UniProt O43525+O43526). As to the kind of experiment: Potassium flux assay (IPG-2 AM dye). The following applies: TREX HEK 293 or HEK 293 cells expressing human KV7.2/KV7.3; arithmetic mean values. The assay is classed as cell-based. In outline:
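HEK 293 or TREX HEK 293 cells stably expressing human KV7.2/KV7.3 (tetracycline-induced where needed), loaded with IPG-2 AM, then compound for 20 min at room temperature. Flux triggered by K challenge buffer (10 mM KCl, pH 7.4), read at 530/558 nm; EC50 from 16-point 2-fold series from 30 μM, normalised to DMSO and reference modulator.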
With `Clc1ccc(Nc2nccc3cc(O[C@@H]4CCC5(COC5)C4)ccc23)cn1` [Example 138, (R)-6-((2-oxaspiro[3.4]octan-6-yl)oxy)-N-(6-chloropyridin-3-yl)isoquinolin-1-amine], the EC50 was less than 1000 nM.
The same measure for `Cn1cnnc1COc1ccc2c(Nc3ccc(Cl)nc3)nccc2c1` [Example 87, N-(6-chloropyridin-3-yl)-6-((4-methyl-4H-1,2,4-triazol-3-yl)methoxy)isoquinolin-1-amine]: 1000 to 10000 nM; for `Cn1cc(COc2cnc3c(Nc4ccc(Cl)nc4)nccc3c2)cn1` [Example 252, N-(6-chloropyridin-3-yl)-3-((1-methyl-1H-pyrazol-4-yl)methoxy)-1,7-naphthyridin-8-amine]: less than 1000 nM; for `Clc1ncc(Nc2nccc3cc(OCc4ccncc4)ccc23)cn1` [Example 202, N-(2-chloropyrimidin-5-yl)-6-(pyridin-4-ylmethoxy)isoquinolin-1-amine]: less than 1000 nM.
The same measure for `CC1(C)CCC(COc2ccc3c(Nc4cnc(Cl)nc4)nccc3c2)O1` (stereo not drawn) [Example 420]: 1000 to 10000 nM; for `Fc1ccc2c(Nc3cnc(Cl)nc3)nccc2c1` [Example 23, N-(2-chloropyrimidin-5-yl)-6-fluoroisoquinolin-1-amine]: 1000 to 10000 nM.
Consider `COCCn1cc(COc2ccc3c(Nc4ccc(Cl)nc4)nccc3c2)cn1` [Example 336, N-(6-chloropyridin-3-yl)-6-((1-(2-methoxyethyl)-1H-pyrazol-4-yl)methoxy)isoquinolin-1-amine], for which the EC50 fell in the range of 1000 to 10000 nM.
In the case of `CS(=O)(=Nc1ccc2c(Nc3ccc(Cl)nc3)nccc2c1)C1COC1` (stereo in doubt) [Example 276, (S)-((1-((6-chloropyridin-3-yl)amino)isoquinolin-6-yl)imino)(methyl)(oxetan-3-yl)-λ^6-sulfanone)] it was 1000 to 10000 nM; in that of `Cn1ccc(COc2ccc3c(Nc4ccc(Cl)nc4)nccc3c2)n1` [Example 150, N-(6-chloropyridin-3-yl)-6-((1-methyl-1H-pyrazol-3-yl)methoxy)isoquinolin-1-amine], less than 1000 nM.
The same measure for `COc1ncc(Nc2nccc3cc(OCc4cnn(C)c4)ccc23)cn1` [Example 371, N-(2-methoxypyrimidin-5-yl)-6-((1-methyl-1H-pyrazol-4-yl)methoxy)isoquinolin-1-amine]: less than 1000 nM; for `Clc1ccc(Nc2nccc3cc(OC[C@@H]4CCN(Cc5ccccc5)C4)ccc23)cn1` [Example 283, (R)-6-((1-benzylpyrrolidin-3-yl)methoxy)-N-(6-chloropyridin-3-yl)isoquinolin-1-amine]: 1000 to 10000 nM; for `CC1(COc2ccc3c(Nc4ccc(Cl)nc4)nccc3c2)COC1` [Example 210, N-(6-chloropyridin-3-yl)-6-((3-methyloxetan-3-yl)methoxy)isoquinolin-1-amine]: less than 1000 nM.
In the case of `Cc1nnc(COc2ccc3c(Nc4ccc(Cl)nc4)nccc3c2)o1` [Example 63, N-(6-chloropyridin-3-yl)-6-((5-methyl-1,3,4-oxadiazol-2-yl)methoxy)isoquinolin-1-amine] it was 1000 to 10000 nM.
With `Clc1ccc(Nc2nccc3cc(OCc4cnn(C5CC5)c4)ccc23)cn1` [Example 289, N-(6-chloropyridin-3-yl)-6-((1-cyclopropyl-1H-pyrazol-4-yl)methoxy)isoquinolin-1-amine], the 50% effective concentration (EC50) was 1000 to 10000 nM.
Consider `Clc1ncc(Nc2nccc3cc(OCCCc4cn[nH]c4)ccc23)cn1` [Example 389, 6-(3-(1H-pyrazol-4-yl)propoxy)-N-(2-chloropyrimidin-5-yl)isoquinolin-1-amine], for which the EC50 is less than 1000 nM.
In the case of `Cc1ncc(Nc2nccc3cc(OCC4(F)CC4)ccc23)cc1Cl` [Example 45, N-(5-chloro-6-methylpyridin-3-yl)-6-((1-fluorocyclopropyl)methoxy)isoquinolin-1-amine] it was no less than 30000 nM; in that of `CS(=O)(=Nc1ccc2c(Nc3ccc(Cl)nc3)nccc2c1)C1CCOCC1` (stereo not drawn) [Example 270, ((1-((6-chloropyridin-3-yl)amino)isoquinolin-6-yl)imino)(methyl)(tetrahydro-2H-pyran-4-yl)-λ^6-sulfanone], 1000 to 10000 nM.
The same measure for `OC12CC3CC(C1)CC(Oc1ccc4c(Nc5ccc(Cl)nc5)nccc4c1)(C3)C2` [Example 331, 3-((1-((6-chloropyridin-3-yl)amino)isoquinolin-6-yl)oxy)adamantan-1-ol]: less than 1000 nM; for `FC(F)(F)CN1CC(COc2ccc3c(Nc4ccc(Cl)nc4)nccc3c2)C1` [Example 310, N-(6-chloropyridin-3-yl)-6-((1-(2,2,2-trifluoroethyl)azetidin-3-yl)methoxy)isoquinolin-1-amine]: 1000 to 10000 nM.
The same measure for `N#CCC1(COc2ccc3c(Nc4ccc(Cl)nc4)nccc3c2)COC1` [Example 134, 2-(3-(((1-((6-chloropyridin-3-yl)amino)isoquinolin-6-yl)oxy)methyl)oxetan-3-yl)acetonitrile]: less than 1000 nM.
As for `NC(=O)C1(Oc2ccc3c(Nc4cnc(Cl)nc4)nccc3c2)CC1` [Example 61, 1-((1-((2-chloropyrimidin-5-yl)amino)isoquinolin-6-yl)oxy)cyclopropane-1-carboxamide], the EC50 fell in the range of 1000 to 10000 nM.
The same measure for `O=C(N[C@@H]1CCC[C@H](Oc2ccc3c(Nc4cnc(Cl)nc4)nccc3c2)C1)C(F)(F)F` [Example 375, N-((1R,3S)-3-((1-((2-chloropyrimidin-5-yl)amino)isoquinolin-6-yl)oxy)cyclohexyl)-2,2,2-trifluoroacetamide]: 1000 to 10000 nM; for `O=S1(=O)CC[C@H](Oc2ccc3c(Nc4ccc(Cl)nc4)nccc3c2)C1` [Example 262, (S)-3-((1-((6-chloropyridin-3-yl)amino)isoquinolin-6-yl)oxy)tetrahydrothiophene 1,1-dioxide]: 1000 to 10000 nM.
The same measure for `Clc1ccc(Nc2nccc3cc(O[C@H]4CCOC4)ccc23)cn1` [Example 298, (S)-N-(6-chloropyridin-3-yl)-6-((tetrahydrofuran-3-yl)oxy)isoquinolin-1-amine trifluoroacetate]: 1000 to 10000 nM; for `Clc1ccc(Nc2nccc3cc(OCCOC4CC4)ccc23)cn1` [Example 39, N-(6-chloropyridin-3-yl)-6-(2-cyclopropoxyethoxy)isoquinolin-1-amine]: 1000 to 10000 nM; for `FC1(F)CCC(Oc2ccc3c(Nc4ccc(Cl)nc4)nccc3c2)CC1` [Example 93, N-(6-chloropyridin-3-yl)-6-((4,4-difluorocyclohexyl)oxy)isoquinolin-1-amine]: less than 1000 nM.
In the case of `O[C@H]1CCC[C@@H](Oc2ccc3c(Nc4ccc(Cl)nc4)nccc3c2)C1` [Example 347, (1 S,3R)-3-((1-((6-chloropyridin-3-yl)amino)isoquinolin-6-yl)oxy)cyclohexan-1-ol] it was less than 1000 nM.
In the case of `CC1(CNc2ccc3c(Nc4ccc(Cl)nc4)nccc3c2)COC1` [Example 245, N′-(6-chloropyridin-3-yl)-N^6-((3-methyloxetan-3-yl)methyl)isoquinoline-1,6-diamine], the EC50 is 1000 to 10000 nM.
The same measure for `CC(C)(C#N)COc1ccc2c(Nc3ccc(Cl)nc3)nccc2c1` [Example 78, 3-((1-((6-chloropyridin-3-yl)amino)isoquinolin-6-yl)oxy)-2,2-dimethylpropanenitrile]: 1000 to 10000 nM.
The same measure for `COCCOCCOc1ccc2c(Nc3ccc(Cl)nc3)nccc2c1` [Example 236, N-(6-chloropyridin-3-yl)-6-(2-(2-methoxyethoxy)ethoxy)isoquinolin-1-amine]: 1000 to 10000 nM.
Take `CC(=O)N1CC(COc2ccc3c(Nc4ccc(Cl)nc4)nccc3c2)C1` [Example 309, 1-(3-(((1-((6-chloropyridin-3-yl)amino)isoquinolin-6-yl)oxy)methyl)azetidin-1-yl)ethan-1-one]: the EC50 was in the range of 1000 to 10000 nM.
`CC(C)C1(COc2ccc3c(Nc4ccc(Cl)nc4)nccc3c2)COC1` [Example 152, N-(6-chloropyridin-3-yl)-6-((3-isopropyloxetan-3-yl)methoxy)isoquinolin-1-amine]: the EC50 is less than 1000 nM.
In the case of `C[C@H](COc1ccc2c(Nc3ccc(Cl)nc3)nccc2c1)c1cnn(C)c1` [Example 160, (S)—N-(6-chloropyridin-3-yl)-6-(2-(1-methyl-1H-pyrazol-4-yl)propoxy)isoquinolin-1-amine] it was 1000 to 10000 nM.
In the case of `FC1(F)COCC1Oc1ccc2c(Nc3ccc(Cl)nc3)nccc2c1` (stereo not drawn) [Example 86, N-(6-chloropyridin-3-yl)-6-((4,4-difluorotetrahydrofuran-3-yl)oxy)isoquinolin-1-amine 2,2,2-trifluoroacetate] it was 1000 to 10000 nM.
In the case of `N#CC1(COc2ccc3c(Nc4ccc(Cl)nc4)nccc3c2)CCOC1` (stereo in doubt) [Example 126, (S)-3-(((1-((6-chloropyridin-3-yl)amino)isoquinolin-6-yl)oxy)methyl)tetrahydrofuran-3-carbonitrile] it was less than 1000 nM; in that of `COC1(COc2ccc3c(Nc4ccc(Cl)nc4)nccc3c2)CC1` [Example 177, N-(6-chloropyridin-3-yl)-6-((1-methoxycyclopropyl)methoxy)isoquinolin-1-amine], less than 1000 nM.
`Clc1ccc(Nc2nccc3cc(OC4CCN(Cc5ccccc5)C4)ccc23)cn1` (stereo not drawn) [Example 282, 6-((1-benzylpyrrolidin-3-yl)oxy)-N-(6-chloropyridin-3-yl)isoquinolin-1-amine]: the EC50 lay within 1000 to 10000 nM.
The same measure for `Cc1ccc(Nc2nccc3cc(OCC4COC4)ccc23)cn1` [Example 214, N-(6-methylpyridin-3-yl)-6-(oxetan-3-ylmethoxy)isoquinolin-1-amine]: 1000 to 10000 nM; for `Clc1ccc(Nc2nccc3cc(NCC4CC4)ccc23)cn1` [Example 230, N^1-(6-chloropyridin-3-yl)-N^6-(cyclopropylmethyl)isoquinoline-1,6-diamine formate]: 10000 to 30000 nM.
